Test system: C57BL/6 mice
Experiment: Size of infarction after 90 minutes MCA occlusion (tetrazolium red)
Type: in vivo, mouse
Details: 24 hours after 90 min MCAO; treatment 2.5 hours after MCAO, i.p.; % of contralateral side
Procedure: Adult (3-5 months old) male C57BL/6 mice were obtained from Charles River Inc. (Saint-Constant, Quebec, Canada). All experimental procedures were approved by the MUHC animal care committee according to the guidelines of the Canadian Council for Animal Care. All animals were allowed free access to water before and after surgery.
Unilateral focal cerebral ischemia was induced by occlusion of the medial cerebral artery (MCA) in the left cerebral hemisphere during 1.5 hours. The MCA occlusions in mice is carried out on ˜30 C57BI/6 mice weighing 20-25 g from an adaptation of a method previously described in rats (Beaulieu, J. M., Kriz, J. and Julien, J. P. ,2002, Brain.Res. 946, 153-161). The animals were anesthetized by administration of ketamine/xylazine mg/kg i.m. To avoid hypothermia, the mouse body temperature was maintained at 37° C. with an infrared heating lamp and warm pad. […]
The area of infarct was estimated in the minimum of animals (5-7 mice) from each experimental group. […] The area of infarct was estimated according to the tetrazolium red staining, calculated in arbitrary units pixels and expressed as a percentage of a total control area, the contralateral non-stroked side of the brain. […] The infarct volume was calculated by summing up the infarct area in multiple slices. […]

Compound: CN(C)c1ccc(O)c2c1C[C@H]1C[C@H]3[C@H](N(C)C)C(O)=C(C(N)=O)C(=O)[C@@]3(O)C(O)=C1C2=O [Minocycline, minocycline]
- % of ischemic area: 38.4%

From patent US20040235801A1, “Therapy for stroke” (priority 2001, published 2004)
